Patent US6780995B2, “Activated iododerivatives for the treatment of cancer and aids” (Isotechnika Inc., priority 1997, dated 2004)
Read-outs that look alike come from different tables or passages of the source.

What was measured:
M14 cells = assay: IC50 assay, inhibition of cell proliferation and growth, M14; format: cell-based, human; conditions: Homo sapiens
Procedure: (§1) Cell culture: The human cell lines were propagated under sterile conditions in RPMI 1640 (CellGrow) with 10% fetal bovine serum (Hyclone), 2 mM L-glutamine, and sodium bicarbonate (complete medium) and incubated at 37° C. in HEPA-filtered Sterilcult CO2 tissue culture incubators (Forma) with 5% CO^2 and 95% humidity (Table 1). The murine leukemia cell lines were propagated in Dulbecco's MEM media with 10% equine serum (Hyclone), 2 mM L-glutamine, and sodium bicarbonate (complete medium) and incubated as described. The cells were subcultured twice weekly and used in experiments. The culture was screened for mycoplasma contamination using GeneProbe™ (Fisher) and positive cultures were cured of contaminants over three passages using constant treatment with BM-Cyclin™ antibiotic combination (Boehringer Mannheim). Only cultures confirmed as mycoplasma free were used in testing compounds for anticellular activity.
(§2) The test compounds were stored at 4° C. under light protected conditions. The test compounds were weighed and dissolved in DMSO. The dissolved compounds were then serially diluted in warm medium (RPMI 1640 or Dulbecco's MEM) under constant mixing to minimize precipitation. The positive control drug doxorubicin was diluted in water followed by dilution in media to achieve a final concentration of 200 nM.
(§3) For all experiments, the cells were harvested and centrifuged to remove the media, and suspended in fresh completed medium. Samples were taken to determine cell density. The cell count was determined with a Coulter Model Z1 cell counter and viability was measured with propidium iodide staining followed by analysis on a Coulter EPPICS Elite Flow cytometer. The cell samples sere adjusted with complete medium to a density of 5×10^4/mL for adherent cell lines and 1×10^5/mL for suspension lines. Tissue culture cluster plates (96 well, cat. No. 3595 Costar for adherent human lines and cat No. 25850 Corning for murine leukemias) were seeded with 100 μL cells and incubated as described. Replicate groups of plates were set up for each line to accommodate the exposure options for single agents and combinations. For each dilution 8 wells (100 μL samples of cells) were treated with 100 μL of dosing solution one day after plating. Each cluster plate contained a cell control (8 wells, mock-treated with complete medium), a medium control (3 wells with medium used to subtract out signal generated by media conditions), and an air blank (1 well, for calibrating the plate reader).
(§4) Anticellular effects of the compounds for the adherent cell lines were assessed with neutral red dye. On the day of analysis, the media was removed from sample cell monolayers and replaced with 0.1 mL of neutral red solution (0.5% neutral red, HBSS:RPMI 1640 (1:1), 0.05 M HEPES, pH 7.2). After incubation of the samples at 37° C. for 1 hour the excess dye was removed with blotting and the monolayers were washed twice with 0.85% NaCl solution (0.1 mL per wash). The cell associated dye was extracted by adding 0.2 mL of a 0.1 M NaH2PO4:ethanol (1:1) solution/well followed by incubation for 1 hour at 35° C. The absorbency of neutral red in each monolayer was measured at 550 nm (620 nm reference beam) on a Denley Anthos 2001 microplate reader. The data were transferred via the ARCOM software capture program in Lotus 1-2-3 for processing.
(§5) In assays where technical difficulties due to crystalization of the neutral red occurred the crystal violet staining procedure was employed to measure the amount of cells were left on the plate. Crystal violet staining solution [0.5% crystal violet (w/v), 50% methanol (v/v), 45% saline (v/v), and 5% formalin (v/v)] were prepared on the day of staining. After the media was removed from the sample wells, two drops of crystal violet stain were added to each well and the samples were incubated at ambient temperature for 10 minutes. […]

SK-OV-3 cells = assay: IC50 assay, inhibition of cell proliferation and growth, SK-OV-3; format: cell-based, human; conditions: Homo sapiens
Procedure: as §1, §2, §3, §4, §5

COLO 205 cells = assay: IC50 assay, inhibition of cell proliferation and growth, COLO 205; format: cell-based, human; conditions: Homo sapiens
Procedure: as §1, §2, §3, §4, §5

MCF7 cells = assay: IC50 assay, inhibition of cell proliferation and growth, MCF7; format: cell-based, human; conditions: Homo sapiens
Procedure: as §1, §2, §3, §4, §5

A549 cells = assay: IC50 assay, inhibition of cell proliferation and growth, A549; format: cell-based, human; conditions: Homo sapiens
Procedure: as §1, §2, §3, §4, §5

SK-MEL-5 cells = assay: IC50 assay, inhibition of cell proliferation and growth, SK-MEL-5; format: cell-based, human; conditions: Homo sapiens
Procedure: as §1, §2, §3, §4, §5

B16 cells = assay: IC50 assay, inhibition of cell proliferation and growth, B16; format: cell-based; conditions: Mus musculus; B16 murine melanoma cell line; neutral red or crystal violet; read-out: IC50 Concentrations, B16
Procedure: as §1, §2, §3, §4, §5

P388 cells = assay: IC50 assay (XTT), inhibition of cell proliferation and growth, P388; format: cell-based; conditions: Mus musculus; P388 murine leukemia cell line; XTT dye conversion; read-out: IC50 Concentrations, P388
Procedure: as §1, §2, §3
Anticellular effects of the murine leukemia cell lines were assessed with the XTT dye conversion assay which is more suited to suspension cultures. On the day of analysis XTT[2,3-bis(2-methoxy-4-nitro-5-sulfophenyl)-5-[(phenylamino)carbenyl]-2H-tetrazolium hydroxide, inner salt, sodium salt (Sigma)] was weighed out and dissolved at 1 mg/mL in media. PMS (phenazine methosulfate) was prepared at 5 mM in PBS (phosphate buffered saline) and stored as a stock solution 4° C. The PMS was mixed with dissolved XTT to a final concentration of 0.025 mM. Sample wells were treated with 50 μL of the XTT solution and the plates were incubated for four hours at 37° C. to allow for conversion into the liquid soluble formazan product. After the incubation period the reaction was stopped by adding 10 μL of 10% SDS solution per well and the wells contents of each plate were mixed by agitation. The absorbancy of formazan in each monolayer was measured at 450 nm (620 nm reference beam) on a Denley Anthos 2001 microplate reader. The data were transferred via the ARCOM software capture program into Lotus 1-2-3 for processing.
(§6) Using the procedures described above, concentrations of the Example compounds necessary to inhibit cell proliferation and growth by 50% (1C50 values) were determined in the test cell lines.

RPMI 8226 cells = assay: IC50 assay, inhibition of cell proliferation and growth, RPMI 8226; format: cell-based; conditions: Homo sapiens, RPMI-8226, read-out: IC50 Concentrations, RPM 18226
Procedure: as §1, §2, §3, §6

[1] = M14, read-out: IC50 Concentrations, M14
[2] = SK-OV-3, read-out: IC50 Concentrations, SK-OV-3
[3] = COLO 205, read-out: IC50 Concentrations, COLO 205
[4] = MCF7, read-out: IC50 Concentrations, MCF 7
[5] = A549, read-out: IC50 Concentrations, A 549
[6] = SK-MEL-5, read-out: IC50 Concentrations, SK MEL-5
[7] = M14 melanoma cell line, neutral red or crystal violet, read-out: IC50 Concentrations, M14
[8] = SK-OV-3 ovarian adenocarcinoma cell line, neutral red or crystal violet, read-out: IC50 Concentrations, SK-OV-3
[9] = COLO 205 colon adenocarcinoma cell line, neutral red or crystal violet, read-out: IC50 Concentrations, COLO 205
[10] = MCF7 breast adenocarcinoma cell line, neutral red or crystal violet, read-out: IC50 Concentrations, MCF 7
[11] = A549 bronchogenic cell line, neutral red or crystal violet, read-out: IC50 Concentrations, A 549
[12] = SK-MEL-5 melanoma cell line, neutral red or crystal violet, read-out: IC50 Concentrations, SK MEL-5

| Compound | IC50 (M14 cells; [1]) [µM] | IC50 (SK-OV-3 cells; [2]) [µM] | melting point [°C] | IC50 (COLO 205 cells; [3]) [µM] | IC50 (MCF7 cells; [4]) [µM] | IC50 (A549 cells; [5]) [µM] | IC50 (SK-MEL-5 cells; [6]) [µM] | IC50 (M14 cells; [7]) [µM] | IC50 (SK-OV-3 cells; [8]) [µM] | IC50 (B16 cells) [µM] | IC50 (COLO 205 cells; [9]) [µM] | IC50 (MCF7 cells; [10]) [µM] | IC50 (A549 cells; [11]) [µM] | IC50 (SK-MEL-5 cells; [12]) [µM] | IC50 (P388 cells) [µM] | IC50 (RPMI 8226 cells) [µM] |
| --- | --- | --- | --- | --- | --- | --- | --- | --- | --- | --- | --- | --- | --- | --- | --- | --- |
| CN(C)CCNC(=O)c1cc([N+](=O)[O-])ccc1I [Ref. No. 1, (N,N-Dimethylaminoethyl)-2-Iodo-5-Nitro-Benzamide] | 474 | 404 | 126 to 128 | 267 | 133 | 333 | 40.1 |  |  |  |  |  |  |  |  |  |
| CCN(CC)CCNC(=O)c1cc([N+](=O)[O-])ccc1I [Ref. No. 2, (N,N-Diethylaminoethyl)-2-Iodo-5-Nitro-Benzamide] |  |  | 124 to 126 | 343 | 128 | 333 |  |  |  |  |  |  |  |  |  |  |
| O=C(Nc1ccc2c(C(F)(F)F)cc(=O)oc2c1)c1cc([N+](=O)[O-])ccc1I [Ref. No. 3, 7-(2′-Iodo-5′-Nitro-Benzamido)-4-Trifluoromethyl-2H-1-Benzopyran-2-one] | 126 | 44 | 223 to 227 | 39.9 | 114 | 363 | 37.7 |  |  |  |  |  |  |  |  |  |
| O=C(Nc1ccc2ccc(=O)oc2c1)c1cc([N+](=O)[O-])ccc1I [Ref. No. 4, 7-(2′-Iodo-5′-Nitro-Benzamido)-2H-1-Benzopyran-2-one] |  |  | 273 to 277 |  |  |  |  | > 500 | 395 | 15.9 | > 500 | > 500 | > 500 | > 500 |  |  |
| O=C(Nc1nccs1)c1cc([N+](=O)[O-])ccc1I [Ref. No. 5, 2-(2′-Iodo-5′-Nitro-Benzamido)-Thiazole] |  |  | 210 to 213 |  |  |  |  | 17.4 | 32.8 | 30.8 | 13.4 | 27 | 48.6 | 46.2 |  |  |
| O=C(Nc1ncc([N+](=O)[O-])s1)c1cc([N+](=O)[O-])ccc1I [Ref. No. 6, 2-(2′-Iodo-5′-Nitro-Benzamido)-5-Nitro-Thiazole] | 141 | 130 | 230 to 234 | 117 | 80.9 | 86.5 | 132 |  |  |  |  |  |  |  |  |  |
| C=CCNC(=O)c1cc([N+](=O)[O-])ccc1I [Ref. No. 7, N-(Allyl)-2-Iodo-5-Nitro-Benzamide] |  |  | 155 to 158 |  |  |  |  | 41.8 | 46.4 | 45.1 | 38.5 |  | 134 | 124 | 39.4 |  |
| C#CCNC(=O)c1cc([N+](=O)[O-])ccc1I [Ref. No. 8, N-(Propargyl) 2-Iodo-5-Nitro-Benzamide] |  |  | 204 to 206 |  |  |  |  | 49 | 43.4 | 50 | 30.6 | 47.7 | 46.6 | 90.4 | 25.8 |  |
| C=C(C)c1ccccc1NC(=O)c1cc([N+](=O)[O-])ccc1I [Ref. No. 9, N-(2′-Iodo-5′-Nitro-Benzoyl) 2-Isopropenyl Aniline] |  |  | 155 to 158 |  |  |  |  | > 500 | > 500 | 462 |  | 100 | > 500 | > 500 |  |  |
| NC(=O)c1cc(N)ccc1I [Ref. No. 13] |  |  |  |  |  |  |  | > 500 | > 500 | 500 | > 500 | > 500 | > 500 | > 500 | 439 |  |
| NC(=O)c1cc([N+](=O)[O-])ccc1I [Ref. No. 15, 2-Iodo-5-Nitro-Benzamide] |  |  | 260 to 264 |  |  |  |  | 36.1 | 141 | 134 | 33.2 |  | 37.4 | 314 |  |  |
| O=C(c1cc([N+](=O)[O-])ccc1I)N(C(=O)c1cc([N+](=O)[O-])ccc1I)C1=NCCS1 [Ref. No. 17] | 37.9 | 32 |  | > 500 | 46.9 | 127 | 42.8 |  |  |  |  |  |  |  |  | > 50 |
| Cc1csc(N(C(=O)c2cc([N+](=O)[O-])ccc2I)C(=O)c2cc([N+](=O)[O-])ccc2I)n1 [Ref. No. 20] | 15.1 | 10.8 |  | 42.6 | 36.1 | 48.4 | 47.1 |  |  |  |  |  |  |  |  | 13.7 |
